Source: ChEMBL document CHEMBL1201862, “PubChem BioAssay data set” (2004)
Calls of active or inactive are those of the source.

What was measured:
[1] = molecular target: T1, Caspase-6 (Homo sapiens, UniProt P55212); assay: inhibition of CASP6 peptide cleavage – biochemical, VEID-R110 fluorescence, cherry-pick, dose response (AID 720632)
T1 sequence (P55212 whole entry): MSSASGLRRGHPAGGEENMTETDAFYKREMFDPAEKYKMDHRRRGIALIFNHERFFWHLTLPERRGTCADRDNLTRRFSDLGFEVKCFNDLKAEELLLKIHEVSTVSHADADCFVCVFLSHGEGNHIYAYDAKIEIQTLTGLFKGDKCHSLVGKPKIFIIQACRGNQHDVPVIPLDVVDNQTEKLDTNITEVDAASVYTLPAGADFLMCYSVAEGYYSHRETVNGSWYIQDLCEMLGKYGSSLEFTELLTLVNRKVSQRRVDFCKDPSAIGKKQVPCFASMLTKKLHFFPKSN

[2] = molecular target: T2, Sentrin-specific protease 6 (Homo sapiens, UniProt Q9GZR1); assay: inhibition of human SENP6 catalytic domain – biochemical, luminescence, set 2, SAR follow-up (AID 588598); type: functional
T2 sequence (Q9GZR1 whole entry): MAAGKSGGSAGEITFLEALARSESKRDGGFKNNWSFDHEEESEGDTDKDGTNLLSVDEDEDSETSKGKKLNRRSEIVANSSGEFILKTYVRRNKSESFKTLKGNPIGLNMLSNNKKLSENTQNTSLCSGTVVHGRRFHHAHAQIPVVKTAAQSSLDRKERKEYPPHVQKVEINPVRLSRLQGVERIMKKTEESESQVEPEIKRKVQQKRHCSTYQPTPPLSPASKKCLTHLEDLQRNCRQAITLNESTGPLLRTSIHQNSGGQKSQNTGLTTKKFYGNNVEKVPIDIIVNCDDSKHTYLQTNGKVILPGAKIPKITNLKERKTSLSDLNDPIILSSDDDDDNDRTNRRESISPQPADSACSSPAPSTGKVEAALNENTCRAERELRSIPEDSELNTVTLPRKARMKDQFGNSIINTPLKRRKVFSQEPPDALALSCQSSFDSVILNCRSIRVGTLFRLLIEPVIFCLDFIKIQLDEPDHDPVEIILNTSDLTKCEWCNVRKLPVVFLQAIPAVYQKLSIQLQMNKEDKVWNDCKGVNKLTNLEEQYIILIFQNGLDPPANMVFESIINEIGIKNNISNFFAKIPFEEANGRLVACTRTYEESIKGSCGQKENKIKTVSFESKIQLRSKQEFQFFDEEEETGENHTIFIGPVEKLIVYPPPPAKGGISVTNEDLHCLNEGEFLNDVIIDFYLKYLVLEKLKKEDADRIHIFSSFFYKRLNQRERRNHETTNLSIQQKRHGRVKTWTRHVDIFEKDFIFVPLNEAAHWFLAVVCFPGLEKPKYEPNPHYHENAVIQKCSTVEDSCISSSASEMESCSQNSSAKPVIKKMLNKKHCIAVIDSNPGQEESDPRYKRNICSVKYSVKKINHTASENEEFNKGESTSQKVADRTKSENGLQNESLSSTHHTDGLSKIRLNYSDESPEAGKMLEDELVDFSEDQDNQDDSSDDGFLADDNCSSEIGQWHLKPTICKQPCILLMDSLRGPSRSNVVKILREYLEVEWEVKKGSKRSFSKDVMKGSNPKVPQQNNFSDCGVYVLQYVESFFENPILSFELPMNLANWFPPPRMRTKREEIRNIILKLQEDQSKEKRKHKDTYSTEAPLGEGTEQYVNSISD

[3] = molecular target: T3, Caspase-3 (Homo sapiens, UniProt P42574); assay: inhibition of recombinant caspase-3 activity – biochemical, luminescence, set 2, selectivity assay for SENP protease inhibitor project, SAR follow-up (AID 588599); type: functional
T3 sequence (P42574 whole entry): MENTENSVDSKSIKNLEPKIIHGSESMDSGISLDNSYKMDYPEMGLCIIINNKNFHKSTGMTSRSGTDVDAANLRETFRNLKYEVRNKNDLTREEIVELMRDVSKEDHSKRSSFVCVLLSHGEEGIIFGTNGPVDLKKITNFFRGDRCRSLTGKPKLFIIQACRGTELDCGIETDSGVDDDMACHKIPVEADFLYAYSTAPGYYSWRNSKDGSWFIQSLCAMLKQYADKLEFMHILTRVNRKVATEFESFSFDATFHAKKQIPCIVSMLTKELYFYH

[4] = molecular target: T4, Nuclear receptor subfamily 0 group B member 1 (Homo sapiens, UniProt P51843); assay: Luminescence-based cell-based high throughput dose response assay for inhibitors of the orphan nuclear receptor subfamily 0, group B, member 1 (DAX1; NR0B1). [Related pubchem assays (depositor defined):AID504766, AID504790]; type: functional
T4 sequence (P51843 whole entry): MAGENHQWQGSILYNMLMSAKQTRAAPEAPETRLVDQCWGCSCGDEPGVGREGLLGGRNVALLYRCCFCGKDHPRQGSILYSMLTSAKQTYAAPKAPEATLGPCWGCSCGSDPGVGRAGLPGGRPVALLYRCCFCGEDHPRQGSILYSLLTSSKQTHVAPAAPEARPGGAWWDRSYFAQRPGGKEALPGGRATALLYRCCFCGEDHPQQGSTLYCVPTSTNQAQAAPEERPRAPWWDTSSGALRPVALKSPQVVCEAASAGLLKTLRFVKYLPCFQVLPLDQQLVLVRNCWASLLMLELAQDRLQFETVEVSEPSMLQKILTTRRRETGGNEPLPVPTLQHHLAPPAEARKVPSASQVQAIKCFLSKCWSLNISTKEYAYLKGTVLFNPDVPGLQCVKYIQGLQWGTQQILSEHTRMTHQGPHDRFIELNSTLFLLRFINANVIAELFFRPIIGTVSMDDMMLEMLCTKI

[5] = molecular target: T3, Caspase-3; assay: SAR Analysis of small molecule inhibitors of Sentrin-specific proteases (SENPs) using a Caspase-3 Selectivity assay. [Related pubchem assays (depositor defined):AID2540, AID2599, AID434973, AID489001]; type: functional
[6] = molecular target: Polyadenylate-binding protein 1 (Homo sapiens, UniProt P11940); assay: MLLE domain peptide-binding blockers, IC50 – biochemical, fluorescence polarization, FITC-PAM2 peptide, dose response (AID 602259); type: functional; settings: read-out: IC50_Mean
[7] = viability of BHK-21 cells – cell-based, secondary screen, cytotoxicity control for flavivirus guanylyltransferase probe project (AID 624078); type: functional
[8] = cAMP pathway inhibition in counterscreen cell line – TR-FRET cAMP detection, counter-screen for MC4R biased antagonist project, dose response (AID 602305); type: functional, cell-based;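 also: U2OS cells stimulated with forskolin near its EC80 as the cAMP inducer; potency is for inhibition of forskolin-stimulated cAMP signaling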
[9] = Intein inhibitors as potential Tuberculosis drugs, a cytotoxicity screen. [Related pubchem assays (depositor defined):AID2221, AID2223, AID434968, AID435010, AID449749, AID449750, AID489010]; type: functional
[10] = viability of HCT116 lacking mutant beta-catenin – cell-based, human colon tumor, dose response (AID 1045); type: functional;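 also: HCT116 colon tumor cells with beta catenin knocked out; cells exposed to compound for 60 hours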
[11] = molecular target: DNA damage-inducible transcript 3 protein (Mus musculus, UniProt P35639); type: functional, Cricetulus griseus
Chain of DNA damage-inducible transcript 3 protein (P35639 whole entry): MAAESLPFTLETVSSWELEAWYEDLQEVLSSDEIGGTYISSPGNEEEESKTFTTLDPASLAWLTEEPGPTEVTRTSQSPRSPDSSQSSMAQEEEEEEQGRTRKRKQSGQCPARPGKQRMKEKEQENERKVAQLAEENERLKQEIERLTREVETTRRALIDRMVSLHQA

Chain of Polyadenylate-binding protein 1 (P11940 whole entry, the tested form may be a part): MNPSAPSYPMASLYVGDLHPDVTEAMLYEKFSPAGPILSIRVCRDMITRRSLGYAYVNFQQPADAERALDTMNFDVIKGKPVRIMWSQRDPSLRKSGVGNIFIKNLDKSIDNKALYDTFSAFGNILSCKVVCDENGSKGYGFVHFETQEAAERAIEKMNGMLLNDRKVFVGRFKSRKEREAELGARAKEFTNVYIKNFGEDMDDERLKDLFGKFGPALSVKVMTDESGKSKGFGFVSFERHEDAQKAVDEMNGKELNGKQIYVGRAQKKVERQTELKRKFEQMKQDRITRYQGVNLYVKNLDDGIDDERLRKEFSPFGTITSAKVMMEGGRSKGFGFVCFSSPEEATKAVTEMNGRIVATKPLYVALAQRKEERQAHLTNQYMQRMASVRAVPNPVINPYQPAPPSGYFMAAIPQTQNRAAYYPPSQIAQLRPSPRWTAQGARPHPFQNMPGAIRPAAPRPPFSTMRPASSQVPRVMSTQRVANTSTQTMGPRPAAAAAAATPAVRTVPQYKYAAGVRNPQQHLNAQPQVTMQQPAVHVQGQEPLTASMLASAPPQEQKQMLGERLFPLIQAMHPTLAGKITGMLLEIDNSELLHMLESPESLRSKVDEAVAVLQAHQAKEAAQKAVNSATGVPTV

Q: Which AC50 [1] does the source give for COc1ccccc1N1C(=O)Cc2ccccc2C1=O here?
A: 24.2 µM (active)

Q: For Oc1ccccc1/C=C/c1noc(-c2ccccc2O)n1, which IC50 [2] is on record?
A: 62.4 µM (active)

Q: And the IC50 [3]?
A: > 99 µM (inactive)

Q: And the IC50 [4]?
A: > 67.5 µM (inactive)

Q: What about the IC50 [5] of the same molecule?
A: 21 µM (active)

Q: Which IC50 [6] does the source give for O=C(O)CSc1cc(NS(=O)(=O)c2ccc(Cl)cc2)c2ccccc2c1O here?
A: > 66 µM (inactive)

Q: What about the CC50 [7] of the same molecule?
A: 7.78 µM (active)

Q: What does the source list for Cc1nn(-c2ccccc2)c(Cl)c1CN(C(=O)CCl)c1ccc(Cl)cc1?
A: IC50 [8]: > 64.6 µM (inactive); CC50 [9]: 2.06 µM (active); EC50 [10]: 4.11 µM (active); Absolute IC50 (CHOP) [11]: 10 µM
